Literature values, collected in patent US20070203078A1, “METHOD FOR THE TREATMENT AND DIAGNOSIS OF CERTAIN PSYCHIATRIC DISORDERS RELATED TO THE MENSTRUAL CYCLE” (THE REGENTS OF THE UNIVERSITY OF CALIFORNIA, priority 2004, published 2007).

Target: T1, δ subunit-containing GABAARs (Mus musculus, UniProt P22933)
T1 construct: tonic conductance mediated by δ subunit-containing GABAARs in several classes of neurons; host or cells: neurons (cerebellar granule cells, dentate gyrus granule cells and interneurons are named)
T1 sequence (P22933 25-449): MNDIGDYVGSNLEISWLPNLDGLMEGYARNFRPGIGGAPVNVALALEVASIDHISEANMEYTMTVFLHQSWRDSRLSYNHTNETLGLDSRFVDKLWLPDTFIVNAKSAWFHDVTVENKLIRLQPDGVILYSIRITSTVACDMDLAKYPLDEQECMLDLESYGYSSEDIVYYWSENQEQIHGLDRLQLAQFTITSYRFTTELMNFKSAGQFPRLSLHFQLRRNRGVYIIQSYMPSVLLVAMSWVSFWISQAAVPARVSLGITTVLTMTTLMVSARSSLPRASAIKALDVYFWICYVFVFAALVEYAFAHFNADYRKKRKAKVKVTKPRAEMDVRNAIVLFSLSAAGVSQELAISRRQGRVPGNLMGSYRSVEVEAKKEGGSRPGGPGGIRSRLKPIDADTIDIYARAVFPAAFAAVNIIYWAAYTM
Settings: THDOC in the physiological range (10 nM)

C[C@]12CC[C@@H](O)C[C@H]1CC[C@@H]1[C@@H]2CC[C@]2(C)[C@@H](C(=O)CO)CC[C@@H]12 [THDOC]
effect on synaptic currents: no effect | effect on tonic conductance mediated by δ subunit-containing GABAARs (several classes of neurons): significantly potentiate
